System: NOMO1
Test: cell viability relative to DMSO control; higher = less cytotoxic
Conditions: 48 h
Procedure, shortened: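 In 1536-well plates, 5 μl of leukemia cells were seeded per well: 500 cells/well for NOMO1 or SEM and 1000 cells/well for P12-Ichikawa. Each line had first been adapted for at least four passages in each medium. Library compounds in DMSO were pin-dosed at 11 threefold concentrations between 47 μM and 0.79 nM, and CellTiter-Glo One luminescence was read after 48 h at 37°C. Viability is a per-plate percentage relative to DMSO wells, with cell-free wells as background.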

[1] = RPMI 5 mM glucose + 10% FBS, 0.000781 µM
[2] = RPMI 5 mM glucose + 10% FBS, 0.00234 µM
[3] = RPMI 5 mM glucose + 10% FBS, 0.00702 µM
[4] = RPMI 5 mM glucose + 10% FBS, 0.0211 µM
[5] = RPMI 5 mM glucose + 10% FBS, 0.0632 µM
[6] = RPMI 5 mM glucose + 10% FBS, 0.19 µM
[7] = RPMI 5 mM glucose + 10% FBS, 0.569 µM
[8] = RPMI 5 mM glucose + 10% FBS, 1.71 µM
[9] = RPMI 5 mM glucose + 10% FBS, 5.12 µM
[10] = RPMI 5 mM glucose + 10% FBS, 15.4 µM
[11] = RPMI 5 mM glucose + 10% FBS, 46.1 µM
[12] = HPLM + 10% dialyzed FBS, 0.000781 µM
[13] = HPLM + 10% dialyzed FBS, 0.00234 µM
[14] = HPLM + 10% dialyzed FBS, 0.00702 µM
[15] = HPLM + 10% dialyzed FBS, 0.0211 µM
[16] = HPLM + 10% dialyzed FBS, 0.0632 µM
[17] = HPLM + 10% dialyzed FBS, 0.19 µM
[18] = HPLM + 10% dialyzed FBS, 0.569 µM
[19] = HPLM + 10% dialyzed FBS, 1.71 µM
[20] = HPLM + 10% dialyzed FBS, 5.12 µM
[21] = HPLM + 10% dialyzed FBS, 15.4 µM
[22] = HPLM + 10% dialyzed FBS, 46.1 µM
[23] = RPMI 5 mM glucose + 10% dialyzed FBS, 0.000781 µM
[24] = RPMI 5 mM glucose + 10% dialyzed FBS, 0.00234 µM
[25] = RPMI 5 mM glucose + 10% dialyzed FBS, 0.00702 µM
[26] = RPMI 5 mM glucose + 10% dialyzed FBS, 0.0211 µM
[27] = RPMI 5 mM glucose + 10% dialyzed FBS, 0.0632 µM
[28] = RPMI 5 mM glucose + 10% dialyzed FBS, 0.19 µM
[29] = RPMI 5 mM glucose + 10% dialyzed FBS, 0.569 µM
[30] = RPMI 5 mM glucose + 10% dialyzed FBS, 1.71 µM
[31] = RPMI 5 mM glucose + 10% dialyzed FBS, 5.12 µM
[32] = RPMI 5 mM glucose + 10% dialyzed FBS, 15.4 µM
[33] = RPMI 5 mM glucose + 10% dialyzed FBS, 46.1 µM

Compound	cell viability [1] [%]	cell viability [2] [%]	cell viability [3] [%]	cell viability [4] [%]	cell viability [5] [%]	cell viability [6] [%]	cell viability [7] [%]	cell viability [8] [%]	cell viability [9] [%]	cell viability [10] [%]	cell viability [11] [%]	cell viability [12] [%]	cell viability [13] [%]	cell viability [14] [%]	cell viability [15] [%]	cell viability [16] [%]	cell viability [17] [%]	cell viability [18] [%]	cell viability [19] [%]	cell viability [20] [%]	cell viability [21] [%]	cell viability [22] [%]	cell viability [23] [%]	cell viability [24] [%]	cell viability [25] [%]	cell viability [26] [%]	cell viability [27] [%]	cell viability [28] [%]	cell viability [29] [%]	cell viability [30] [%]	cell viability [31] [%]	cell viability [32] [%]	cell viability [33] [%]
CN1[C@@H]2CC(O)C[C@H]1[C@@H]1O[C@@H]12 (some centres undefined)	111	125	121	121	113	118	103	113	121	111	6.78																						
COc1cc(N2CCC(N3CCN(C)CC3)CC2)ccc1Nc1ncnc(Nc2ccccc2[S+](=O)([O-])C(C)C)n1	110	103	113	119	88	117	115	108	110	62.5	43.2	92.5	92.9	95.9	111	65	123	144	117	102	54.4	31	87.6	87.7	91.9	89.3	69.1	107	123	114	109	58.3	34.5
CN(C)c1nc(N(C)C)nc(N(C)C)n1	96.2	108	102	97.4	99	95.3	94.6	92.2	95.9	95.3	91	101	113	100	105	96.3	92	90.5	97.1	98.7	82.3	89.9	94	103	96	99	98.4	103	101	89.4	83.9	90.8	85.6
CN1C(=O)COc2c(C(=O)NC3CN4CCC3CC4)cc(Cl)cc21 (centres undefined)	90.2	106	94.2	88.8	110	109	99	92.1	90.6	105	85.6	68.8	121	112	107	105	104	119	109	104	111	108	104	102	106	93.2	97.1	91.6	97.6	89.7	90.5	85.8	97.7
C[C@H]1[C@@H](CC(C[C@H]2O[C@@H]3O[C@]4(C)CC[C@H]5[C@H](C)CC[C@@H]([C@H]2C)[C@@]35OO4)C[S+](=O)([O-])c2ccc(COC(=O)N(C)C)cc2)O[C@@H]2O[C@]3(C)CC[C@H]4[C@H](C)CC[C@@H]1[C@@]24OO3	114	119	113	98.9	103	101	82.5	28	21.8	17	15.1	122	123	116	120	127	110	44.8	22.5	22.3	17.9	10.8	109	118	100	110	108	91.9	32.3	22.5	24	18.8	14.8
N=C(N)c1ccc(OCCCCCOc2ccc(C(=N)N)cc2)cc1	100	114	113	108	113	92.2	116	107	93.6	84.8	47.7	111	105	113	121	130	133	104	104	110	75.8	46.6	91.6	101	121	115	114	107	108	98.6	98.3	70.6	49.2
COC1=CC=C(C=C1)C/2=C/OC3=CC(=CC=C3C2=O)O	123	111	121	115	132	114	106	118	102	101	71.1	108	125	114	119	116	119	119	109	83.1	67.9	43.1	122	120	113	106	133	121	101	105	111	104	98.4
CCCCCCCCCCCCCCCC(=O)OC[C@@H](NC(=O)C(Cl)Cl)[C@H](O)c1ccc([N+](=O)[O-])cc1												105	123	126	143	118	141	140	144	141	144	142											
CCCCc1oc2ccc(NS(C)(=O)=O)cc2c1C(=O)c1ccc(OCCCN(CCCC)CCCC)cc1	86.9	98	103	98.3	97.1	93.4	103	28.8	17.8	16.4	9.17	109	107	100	105	96.7	113	114	64.7	34	27.5	14.4	83.2	95.5	102	102	93.7	106	103	66	28.3	20.6	12.5
OC1=C(C=CC=C1)C2=CC=C(C=C2)C3=CSC4=C3C(=C(/C#N)C(=O)N4)/O												119	119	120	102	112	110	119	118	126	105	102	117	123	131	139	122	112	122	119	114	123	109
COc1cc2ncnc(Nc3ccc(F)c(Cl)c3)c2cc1OCCCN1CCOCC1	111	114	109	106	102	116	104	100	101	87.7	86.2	127	115	112	95.3	109	117	108	96.8	93.7	64	29.2	121	112	122	112	115	113	114	109	93.4	97.5	75.1
C[C@@]12OC(=O)[C@@]1(NC(=O)[C@@H]2CCCl)[C@@H](O)[C@H]\3CCC\C=C3	86.2	94.4	104	103	100	66.2	11	6.39	7.27	3.01	1.15	109	114	104	104	97.9	51.4	9.1	6.95	4.84	2.62	1.53	90.2	110	106	96.8	102	62.7	11	5.88	4.34	2.85	1.4
Cc1cnc(Nc2ccc(OCCN3CCCC3)cc2)nc1Nc1cccc([S+](=O)([O-])NC(C)(C)C)c1	105	107	104	90.3	108	110	98	97.3	114	92.7	102	78.8	102	109	116	117	126	102	114	110	100	84.3	87.5	106	99.6	105	100	102	103	102	103	102	100
O=C(c1ccc(F)cc1)C1CCN(CCn2c(=O)[nH]c3ccccc3c2=O)CC1	107	118	117	118	105	111	127	106	105	111	98.8	122	117	111	128	136	114	127	120	143	111	104											
CO[C@@H]1[C@H](N(C)C(=O)c2ccccc2)C[C@H]2O[C@]1(C)n1c3ccccc3c3c4c(c5c6ccccc6n2c5c31)C(=O)NC4	96.7	116	107	114	121	115	118	105	87.1	50.9	44.3	103	104	128	116	153	134	135	114	80	54.5	49.5	117	113	123	111	110	105	114	93.2	80.3	50.8	49.5
